This is an account of results in patent US8778941B2, “TRPM8 antagonists and their use in treatments” (AMGEN Inc., priority 2011, dated 2014).

By IC50 is commonly meant the midpoint of a concentration-inhibition curve.

The target in the assay is T1, human TRPM8 (Homo sapiens, UniProt Q7Z2W7).
T1 construct: expressed in transfected cells; host or cells: Chinese hamster ovary (CHO) cells, T-REx tetracycline-inducible expression system (Invitrogen), co-transfected with pcDNA3.1 jellyfish aequorin
T1 sequence (Q7Z2W7 whole entry): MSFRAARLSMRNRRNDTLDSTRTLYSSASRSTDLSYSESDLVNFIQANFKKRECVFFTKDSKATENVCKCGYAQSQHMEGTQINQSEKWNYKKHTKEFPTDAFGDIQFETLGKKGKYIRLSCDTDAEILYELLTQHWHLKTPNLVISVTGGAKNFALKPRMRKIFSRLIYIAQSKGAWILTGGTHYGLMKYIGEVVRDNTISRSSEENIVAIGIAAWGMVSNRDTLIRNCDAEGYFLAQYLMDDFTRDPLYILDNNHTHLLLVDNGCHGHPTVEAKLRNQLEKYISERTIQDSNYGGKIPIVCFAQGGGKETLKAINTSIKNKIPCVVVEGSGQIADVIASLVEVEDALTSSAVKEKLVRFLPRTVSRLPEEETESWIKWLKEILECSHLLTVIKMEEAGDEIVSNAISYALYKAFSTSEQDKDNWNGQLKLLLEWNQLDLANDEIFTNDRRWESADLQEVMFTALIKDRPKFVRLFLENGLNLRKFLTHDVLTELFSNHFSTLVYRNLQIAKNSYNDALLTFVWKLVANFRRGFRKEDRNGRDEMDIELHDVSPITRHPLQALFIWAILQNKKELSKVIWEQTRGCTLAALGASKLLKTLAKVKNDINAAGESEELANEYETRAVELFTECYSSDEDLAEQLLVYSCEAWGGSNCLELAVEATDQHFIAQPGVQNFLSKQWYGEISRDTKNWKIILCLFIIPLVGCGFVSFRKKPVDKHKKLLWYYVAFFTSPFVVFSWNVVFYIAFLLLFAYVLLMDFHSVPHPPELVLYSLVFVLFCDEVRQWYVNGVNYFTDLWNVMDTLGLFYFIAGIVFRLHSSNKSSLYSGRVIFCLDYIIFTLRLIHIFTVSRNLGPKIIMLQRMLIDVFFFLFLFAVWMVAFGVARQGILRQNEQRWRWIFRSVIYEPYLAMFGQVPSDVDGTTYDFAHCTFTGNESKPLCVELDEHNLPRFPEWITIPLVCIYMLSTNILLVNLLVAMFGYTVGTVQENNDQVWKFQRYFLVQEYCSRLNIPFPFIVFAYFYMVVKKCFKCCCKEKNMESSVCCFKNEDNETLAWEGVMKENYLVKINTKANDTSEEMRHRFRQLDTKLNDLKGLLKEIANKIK
Nature of the assay: Luminescence readout assay for measuring intracellular calcium (aequorin), hTRPM8 antagonism. In kind it is cell-based. As to conditions: CHO cell line expressing human TRPM8 and aequorin; activation by icilin, L-menthol or cold buffer (table does not say which). Here is the method:
Luminescence Readout Assay for Measuring Intracellular Calcium.
A stable Chinese hamster ovary cell line expressing human TRPM8 was generated using tetracycline inducible T-REx™ expression system from Invitrogen, Inc. (Carlsbad, Calif.). […] Twenty four hours before the assay, cells were seeded in 96-well plates and TRPM8 expression was induced with 0.5 μg/mL tetracycline. […] Potential antagonists were added 2.5 min prior to the addition of agonist, […], 100 µM L-menthol, or 1 min prior to the addition of cold buffer (<10° C.). The luminescence was measured by a CCD camera based FLASH-luminometer built by Amgen, Inc. A cooling device attached to FLASH luminometer was used for cold activation.
(In general: A change in cytosolic calcium serves as a functional read-out for many receptors and channels.)
Turning to `C[C@@H](NC(=O)N[C@@H](c1ccc(C(F)(F)F)cc1)c1ncccc1C(F)(F)F)c1ccccc1` [Example 70, 1-((R)-1-phenylethyl)-3-((S)-(4-(trifluoro-methyl)-phenyl)(3-(trifluoro-methyl)-pyridin-2-yl)-methyl)urea (2,2,2-trifluoro-acetate)], the IC50 came out at 781 nM.

On to `CC(C)(C)c1ccccc1NC(=O)N[C@@H](c1ccc(C(F)(F)F)cc1)c1ncccc1C(F)(F)F` [Example 71, (S)-1-(tert-butylphenyl)-3-((4-(trifluoro-methyl)-phenyl)(3-(trifluoro-methyl)-pyridin-2-yl)-methyl)urea (2,2,2-trifluoro-acetate)], for which the IC50 worked out at 5710 nM.

Regarding `O=C(NCc1cccc(F)c1)N[C@@H](c1ccc(C(F)(F)F)cc1)c1ncccc1C(F)(F)F` [Example 72, (S)-1-(3-fluorobenzyl)-3-((4-(trifluoro-methyl)-phenyl)(3-(trifluoro-methyl)-pyridin-2-yl)-methyl)urea (2,2,2-trifluoro-acetate)], the IC50 was determined as 163 nM.

For the compound `O=C(NCc1ccccc1Cl)N[C@@H](c1ccc(C(F)(F)F)cc1)c1ncccc1C(F)(F)F` [Example 73, (S)-1-(2-chlorobenzyl)-3-((4-(trifluoro-methyl)-phenyl)(3-(trifluoro-methyl)-pyridin-2-yl)-methyl)urea (2,2,2-trifluoro-acetate)], the IC50 was 332 nM.

Turning to `COc1ccc(NC(=O)N[C@@H](c2ccc(C(F)(F)F)cc2)c2ncccc2C(F)(F)F)cc1OC` [Example 74, (S)-1-(3,4-dimethoxy-phenyl)-3-((4-(trifluoro-methyl)-phenyl)(3-(trifluoro-methyl)-pyridin-2-yl)-methyl)urea (2,2,2-trifluoro-acetate)], the IC50 was found to be 112 nM.

`O=C(NC1CCN(C(=O)OCc2ccccc2)CC1)N[C@@H](c1ccc(C(F)(F)F)cc1)c1ncccc1C(F)(F)F` [Example 75, (S)-benzyl 4-(3-((4-(trifluoro-methyl)-phenyl)(3-(trifluoro-methyl)-pyridin-2-yl)-methyl)-ureido)-piperidine-1-carboxylate (2,2,2-trifluoro-acetate)]: the IC50 worked out at 670 nM.

With `O=C(Nc1cc(Cl)nc(Cl)c1)N[C@@H](c1ccc(C(F)(F)F)cc1)c1ncccc1C(F)(F)F` [Example 76, (S)-1-(2,6-dichloropyridin-4-yl)-3-((4-(trifluoro-methyl)-phenyl)(3-(trifluoro-methyl)-pyridin-2-yl)-methyl)urea (2,2,2-trifluoro-acetate)], the IC50 is 294 nM.

Turning to `Cc1nc(-c2cccc(NC(=O)N[C@@H](c3ccc(C(F)(F)F)cc3)c3ncccc3C(F)(F)F)c2)no1` [Example 77, (S)-1-(3-(5-methyl-1,2,4-oxadiazol-3-yl)phenyl)-3-((4-(trifluoro-methyl)-phenyl)(3-(trifluoro-methyl)-pyridin-2-yl)-methyl)urea (2,2,2-trifluoro-acetate)], the half-inhibitory concentration (IC50) is 235 nM.

As to `COC(=O)[C@H](CCSC)NC(=O)N[C@@H](c1ccc(C(F)(F)F)cc1)c1ncccc1C(F)(F)F` [Example 78, (S)-methyl 4-(methylthio)-2-(3-((S)-(4-(trifluoro-methyl)-phenyl)(3-(trifluoro-methyl)-pyridin-2-yl)-methyl)-ureido)-butanoate (2,2,2-trifluoro-acetate)], the IC50 came to 1230 nM.

Regarding `COC(=O)[C@H](C)NC(=O)N[C@@H](c1ccc(C(F)(F)F)cc1)c1ncccc1C(F)(F)F` [Example 79, (S)-methyl-2-(3-((S)-(4-(trifluoro-methyl)-phenyl)(3-(trifluoro-methyl)-pyridin-2-yl)-methyl)-ureido)-propanoate (2,2,2-trifluoro-acetate)], the 50% inhibitory concentration (IC50) turned out to be 1500 nM.

As to `COc1ccc([C@H](C)NC(=O)N[C@@H](c2ccc(C(F)(F)F)cc2)c2ncccc2C(F)(F)F)cc1` [Example 80, 1-((S)-1-(4-methoxy-phenyl)ethyl)-3-((S)-(4-(trifluoro-methyl)-phenyl)(3-(trifluoro-methyl)-pyridin-2-yl)-methyl)urea (2,2,2-trifluoro-acetate)], the concentration for half-maximal inhibition (IC50) worked out at 399 nM.

Take `CCOC(=O)NC(=O)N[C@@H](c1ccc(C(F)(F)F)cc1)c1ncccc1C(F)(F)F` [Example 81]: the IC50 was 496 nM.

With `COc1cccc(CCNC(=O)N[C@@H](c2ccc(C(F)(F)F)cc2)c2ncccc2C(F)(F)F)c1OC` [Example 82, (S)-1-(2,3-dimethoxy-phenethyl)-3-((4-(trifluoro-methyl)-phenyl)(3-(trifluoro-methyl)-pyridin-2-yl)-methyl)urea (2,2,2-trifluoro-acetate)], the IC50 worked out at 559 nM.

Turning to `CCCC[C@H](C)NC(=O)N[C@@H](c1ccc(C(F)(F)F)cc1)c1ncccc1C(F)(F)F` [Example 83, 1-((S)-hexan-2-yl)-3-((S)-(4-(trifluoro-methyl)-phenyl)(3-(trifluoro-methyl)-pyridin-2-yl)-methyl)urea (2,2,2-trifluoro-acetate)], the IC50 amounted to 115 nM.

Take `COc1cccc([C@H](C)NC(=O)N[C@@H](c2ccc(C(F)(F)F)cc2)c2ncccc2C(F)(F)F)c1` [Example 84, 1-((S)-1-(3-methoxy-phenyl)ethyl)-3-((S)-(4-(trifluoro-methyl)-phenyl)(3-(trifluoro-methyl)-pyridin-2-yl)-methyl)urea (2,2,2-trifluoro-acetate)]: the IC50 was 767 nM.

In the case of `Cc1ccccc1CNC(=O)N[C@@H](c1ccc(C(F)(F)F)cc1)c1ncccc1C(F)(F)F` [Example 85, (S)-1-(2-methylbenzyl)-3-((4-(trifluoro-methyl)-phenyl)(3-(trifluoro-methyl)-pyridin-2-yl)-methyl)urea (2,2,2-trifluoro-acetate)], the IC50 turned out to be 405 nM.

`CC(=O)c1cccc(NC(=O)N[C@@H](c2ccc(C(F)(F)F)cc2)c2ncccc2C(F)(F)F)c1` [Example 86, (S)-1-(3-acetylphenyl)-3-((4-(trifluoro-methyl)-phenyl)(3-(trifluoro-methyl)-pyridin-2-yl)-methyl)urea (2,2,2-trifluoro-acetate)]: the IC50 was determined as 31 nM.

On to `O=C(NCc1ccccc1F)N[C@@H](c1ccc(C(F)(F)F)cc1)c1ncccc1C(F)(F)F` [Example 87, (S)-1-(2-fluorobenzyl)-3-((4-(trifluoro-methyl)-phenyl)(3-(trifluoro-methyl)-pyridin-2-yl)-methyl)urea (2,2,2-trifluoro-acetate)], for which the half-maximal inhibitory concentration (IC50) amounted to 199 nM.

Regarding `CCc1cccc(CC)c1NC(=O)N[C@@H](c1ccc(C(F)(F)F)cc1)c1ncccc1C(F)(F)F` [Example 88, (S)-1-(2,6-diethylphenyl)-3-((4-(trifluoro-methyl)-phenyl)(3-(trifluoro-methyl)-pyridin-2-yl)-methyl)urea (2,2,2-trifluoro-acetate)], the IC50 turned out to be 108 nM.

For the compound `CCc1cccc(C)c1NC(=O)N[C@@H](c1ccc(C(F)(F)F)cc1)c1ncccc1C(F)(F)F` [Example 89, (S)-1-(2-ethyl-6-methylphenyl)-3-((4-(trifluoro-methyl)-phenyl)(3-(trifluoro-methyl)-pyridin-2-yl)-methyl)urea (2,2,2-trifluoro-acetate)], the IC50 was found to be 330 nM.

On to `CCOC(=O)c1cccc(NC(=O)N[C@@H](c2ccc(C(F)(F)F)cc2)c2ncccc2C(F)(F)F)c1` [Example 90, (S)-ethyl 3-(3-((4-(trifluoro-methyl)-phenyl)(3-(trifluoro-methyl)-pyridin-2-yl)-methyl)-ureido)-benzoate (2,2,2-trifluoro-acetate)], for which the IC50 worked out at 646 nM.
